Here are results for nine compounds from the supplement of paper PMC4862054.

In experiment [1] the test system is CAL-148. Description: normalised viability (% of control), CellTiter-Blue; higher = more viable cells (about 100 = DMSO control). As to conditions: incubation time: 72 h. The procedure:
(§1)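 DSRT, CellTiter-Blue viability, 72 h incubation. Signal is normalised to DMSO and benzethonium chloride controls. Value is the normalised response at dose 9.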
(Resazurin is reduced to fluorescent resorufin, in cell work by metabolically active cells.)

The test system of experiment [2] is CAL-51. The experiment is described as above. As to conditions: incubation time: 72 h. The method, then:
as §1

The test system of experiment [3] is CAL-85-1. Described as above. The conditions noted are these: incubation time: 72 h. The method, then: as §1
Experiment [4] has as its system DU-4475. Described as above. The conditions noted are these: incubation time: 72 h. The procedure: as §1
Experiment [5] relates to HDQ-P1. The description is as above. The conditions noted are these: incubation time: 72 h. The method, then:
as §1

The test system of experiment [6] is MDA-MB-453. The experiment is described as above. As to conditions: incubation time: 72 h. The method, then: as §1
For experiment [7], the system named is BT-474. Description: normalised response (% of control), CellTiter-Glo; higher = more viable cells (100 = DMSO, 0 = benzethonium chloride kill control). The conditions noted are these: incubation time: 72 h. In short, it runs like this: (§2)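 For each plate, 0.1 % DMSO was set to 100 and a positive kill control to 0. Breast cancer cell lines (20 µl suspension) were seeded into 384-well plates already holding compound at 5 concentrations in 10-fold steps over a 10,000-fold range chosen per compound, and incubated for 72 h. CellTox Green fluorescence at 485/520 nm was read before CellTiter-Glo luminescence, which followed 10 min at room temperature. Each value is the normalised signal at one concentration.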

Experiment [8] relates to BT-549. The description is as above. As to conditions: incubation time: 72 h. A digest of the protocol: as §2
For experiment [9], the system named is CAL-120. The description is as above. The conditions noted are these: incubation time: 72 h. In short, it runs like this: as §2
In experiment [10] the test system is CAL-148. Described as above. The conditions noted are these: incubation time: 72 h. A digest of the protocol:
as §2

The test system of experiment [11] is CAL-51. The description is as above. As to conditions: incubation time: 72 h. In short, it runs like this: as §2
Experiment [12] deals with CAL-85-1. The experiment is described as above. The conditions noted are these: incubation time: 72 h. A digest of the protocol: as §2
Experiment [13] deals with DU-4475. The description is as above. As to conditions: incubation time: 72 h. A digest of the protocol: as §2
Experiment [14] concerns HCC1143. The experiment is described as above. As to conditions: incubation time: 72 h. In short, it runs like this: as §2
Experiment [15] has as its system HCC1599. The experiment is described as above. The conditions noted are these: incubation time: 72 h. In short, it runs like this: as §2
Experiment [16] has as its system HCC1937. The experiment is described as above. As to conditions: incubation time: 72 h. In short, it runs like this:
as §2

Experiment [17] concerns HDQ-P1. The description is as above. The conditions noted are these: incubation time: 72 h. A digest of the protocol:
as §2

Experiment [18] deals with Hs578T. Described as above. The conditions noted are these: incubation time: 72 h. A digest of the protocol:
as §2

Experiment [19] has as its system MCF-10A. Described as above. As to conditions: incubation time: 72 h. In short, it runs like this: as §2
The test system of experiment [20] is MDA-MB-231. The experiment is described as above. As to conditions: incubation time: 72 h. In short, it runs like this:
as §2

In experiment [21] the test system is MDA-MB-436. The description is as above. As to conditions: incubation time: 72 h. In short, it runs like this: as §2
In experiment [22] the test system is MDA-MB-453. The description is as above. As to conditions: incubation time: 72 h. In short, it runs like this:
as §2

The subject of experiment [23] is MDA-MB-468. The experiment is described as above. As to conditions: incubation time: 72 h. A digest of the protocol:
as §2

The subject of experiment [24] is MFM-223. Described as above. As to conditions: incubation time: 72 h. A digest of the protocol: as §2
Experiment [25] deals with SK-BR-3. Described as above. As to conditions: incubation time: 72 h. A digest of the protocol:
as §2

The test system of experiment [26] is CAL-51. The conditions noted are these: 72 h. A digest of the protocol: (§3)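 Seeding of breast cancer cell lines (20 µl suspension) was done into 384-well plates pre-loaded with compound at 5 concentrations, 10-fold apart, covering a compound-specific 10,000-fold range. The plates were incubated for 72 h, read for CellTox Green fluorescence (485/520 nm), and then read for CellTiter-Glo luminescence after 10 min at room temperature. Every plate was normalised to 0.1 % DMSO and a positive kill control. Curve fitting gave the EC50, censored at the top concentration.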

For experiment [27], the system named is BT-474. As to conditions: 72 h. A digest of the protocol:
as §3

The subject of experiment [28] is MDA-MB-468. The conditions noted are these: 72 h. A digest of the protocol:
as §3

For the compound `O=P1(NCCCl)OCCCN1CCCl` (configuration not stated) [Ifosfamide] (10000 nM), the normalised viability in experiment [1] came to 101%; in experiment [2] it was 107%; in [3], 88.4%; in experiment [4], 85.1%; in experiment [5], 125%; in experiment [6] it was 106%. Further, the normalised response in experiment [7] worked out at 90.3%; in [8], 99.3%; in experiment [9], 96.3%; in experiment [10], 86.7%; in experiment [11] it was 101%; in experiment [12], 96.3%. Besides, the normalised response in experiment [13] amounted to 87.1%; in [14] it was 96.8%; in [15] it was 110%; in experiment [16], 96.5%; in experiment [17] it was 94%; in experiment [18], 98.7%. In addition, the normalised response in experiment [19] turned out to be 91.6%; in experiment [20], 90.5%; in experiment [21] it was 92.5%; in experiment [22] it was 94.5%; in experiment [23], 93.7%; in experiment [24] it was 90%. For the same compound, the normalised response in experiment [25] is 93.1%.
For the compound `CC1(C)NC(=O)N(c2ccc([N+](=O)[O-])c(C(F)(F)F)c2)C1=O` [Nilutamide], the “EC50, CellTiter-Glo” value in experiment [26] worked out at 724 nM.
On to `Cc1ccc(-n2nc(C(C)(C)C)cc2NC(=O)Nc2ccc(OCCN3CCOCC3)c3ccccc23)cc1` [Doramapimod] (10000 nM), for which the normalised viability in [1] was 111%; in [2], 86.8%; in experiment [3] it was 72.6%; in [4] it was 102%; in experiment [5], 81%; in [6], 62.7%. For the same compound, the normalised response in [7] stood at 80.3%; in experiment [8], 104%; in [9], 94.8%; in experiment [10], 75.7%; in experiment [11], 105%; in experiment [12], 96.1%. Also, the normalised response was 92.7% in experiment [13]; 91.3% in experiment [14]; 68.7% in experiment [15]; 77.7% in [16]; 82.3% in experiment [17]; 97.8% in [18]. Moreover, the normalised response in experiment [19] is 94.2%; in experiment [20], 87.5%; in [21], 99.7%; in experiment [22], 82.9%; in experiment [23] it was 72.5%; in experiment [24], 70.2%. In experiment [25], the normalised response came out at 69.5%.
In the case of `Cn1c(Nc2ccc(C(F)(F)F)cc2)nc2cc(Oc3ccnc(-c4ncc(C(F)(F)F)[nH]4)c3)ccc21` [RAF265], the “EC50, CellTiter-Glo” value in experiment [27] came out at 692 nM; in experiment [28], 142 nM.
Regarding `CS(=O)(=O)c1ccc(C2=C(c3ccccc3)C(=O)OC2)cc1` [Rofecoxib], the “EC50, CellTiter-Glo” value in experiment [26] is above 10000 nM.
`CCC1(c2ccc(N)cc2)CCC(=O)NC1=O` (configuration not stated) [Aminoglutethimide] (10000 nM): the normalised viability in experiment [1] came out at 112%; in experiment [2] it was 85.2%; in [3], 106%; in experiment [4], 97.9%; in experiment [5], 120%; in experiment [6] it was 81.6%. For the same compound, the normalised response in experiment [7] came out at 105%; in experiment [8], 98.1%; in experiment [9], 109%; in [10], 108%; in experiment [11] it was 145%; in experiment [12] it was 106%. The normalised response in [13] is 101%; in experiment [14], 97.4%; in [15], 108%; in experiment [16], 94.5%; in experiment [17], 102%; in [18], 95.1%. Also, the normalised response worked out at 101% in experiment [19]; 103% in experiment [20]; 102% in experiment [21]; 101% in experiment [22]; 97.3% in experiment [23]; 97.8% in experiment [24]. For the same compound, the normalised response in experiment [25] came to 97.2%.
On to `C#Cc1cccc(Nc2ncnc3cc(OCCOC)c(OCCOC)cc23)c1` [Erlotinib], for which, in experiment [26], the “EC50, CellTiter-Glo” value worked out at 1130 nM.
As for `Cn1c(CCCC(=O)O)nc2cc(N(CCCl)CCCl)ccc21` [Bendamustine] (10000 nM), the normalised viability in experiment [1] came to 92.4%; in experiment [2] it was 99%; in experiment [3], 92.9%; in experiment [4] it was 78.6%; in [5], 113%; in [6], 121%. The normalised response was found to be 99.6% in [7]; 101% in [8]; 108% in [9]; 110% in experiment [10]; 132% in experiment [11]; 107% in [12]. Also, the normalised response in [13] was 101%; in [14], 111%; in experiment [15], 96.6%; in experiment [16], 108%; in experiment [17] it was 113%; in experiment [18] it was 103%. In addition, the normalised response was found to be 114% in experiment [19]; 109% in experiment [20]; 105% in experiment [21]; 120% in experiment [22]; 116% in experiment [23]; 106% in [24]. The same compound registered a normalised response in experiment [25] of 105%.
Turning to `Oc1nc(-c2ccc(C(F)(F)F)cc2)nc2c1CSCC2` [XAV-939], the “EC50, CellTiter-Glo” value in experiment [27] stood at 350 nM; in experiment [26], 12.6 nM.
